Biological target: T1, LTD4 /E4 receptors (Cavia porcellus, UniProt Q2NNR5)
T1 construct: membrane fractions, containing the LTD4 /E4 receptors, are prepared from guinea-pig lung parenchyma; from tissue; host or cells: guinea-pig lung parenchyma membrane fractions
T1 sequence (Q2NNR5 1-340): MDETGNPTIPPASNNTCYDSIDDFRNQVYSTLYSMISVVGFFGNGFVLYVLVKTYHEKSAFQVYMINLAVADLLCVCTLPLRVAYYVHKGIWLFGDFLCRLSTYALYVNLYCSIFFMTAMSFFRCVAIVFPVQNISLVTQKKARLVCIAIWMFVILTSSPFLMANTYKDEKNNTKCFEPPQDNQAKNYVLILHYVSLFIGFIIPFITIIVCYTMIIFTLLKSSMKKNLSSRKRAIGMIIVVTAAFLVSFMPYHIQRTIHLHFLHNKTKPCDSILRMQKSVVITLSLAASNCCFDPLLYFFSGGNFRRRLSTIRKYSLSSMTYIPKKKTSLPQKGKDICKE
Experiment: receptor-ligand binding assay, 3H-LTD4 on guinea-pig lung parenchyma membrane fractions
Settings: 1 nM 3H-LTD4, 30 minutes at 22° C.; Ki calculated from IC50 by the Cheng-Prusoff equation
Description: According to this procedure, membrane fractions, containing the LTD4 /E4 receptors, are prepared from guinea-pig lung parenchyma and incubated for 30 minutes at 22° C. with 1 nM ^3 H-LTD4 in the absence or presence of tested antagonist. Specific binding, determined under conditions that prevent enzymatic metabolism of ^3 H-LTD4, is the net result of total ^3 H-LTD4 binding minus nonspecific binding determined in the presence of […] excess unlabelled LTD4. Each assay is done in duplicate and results (Ki values) are typically a mean of several such determinations in individual receptor batches.
The % inhibition by a tested antagonist, relative to control binding (vehicle alone), is expressed as a […] of log[antagonist] concentration (in molar units) and the half-maximal inhibition (IC50) determined by computerized non-linear least-square analysis. The binding constant (Ki) is then calculated from IC50 by the Cheng-Prusoff equation: [formula] where [L] is ^3 H-LTD4 concentration and Kd is the affinity constant of LTD4 to this receptor, determined separately for each batch. (Biochem. Pharmacol. 22: 3099-3108, 1973).

COc1cc(C(=O)NS(=O)(=O)c2ccccc2C)ccc1Cc1cn(C)c2ccc(CCNC(=O)N(C)C)cc12 [Example 4, 4-[5-[2-(N',N'-Dimethylureido)ethyl]-1-methylindol-3-ylmethyl]-3-methoxy-N-(2-methylphenylsulfonyl)benzamide]
Ki: 1 nM

Source: patent publication US5041460A, “Heter-aliphatic carboxamides” (ICI Americas Inc., priority 1989, dated 1991)
